# Experiments:
# [1] = target: T1, LXR beta (Homo sapiens, UniProt P55055); assay: LXR beta agonist assay (Lanthascreen TR-FRET); format: biochemical; conditions: LXR beta-LBD 5 nM, read-out: LXR-β EC50
# T1 construct: 5 μL of 4×LXR beta-LBD was added to each well (final concentration 5 nM); purchased Thermofisher PV4658
# T1 sequence (P55055 222-460 limits assumed): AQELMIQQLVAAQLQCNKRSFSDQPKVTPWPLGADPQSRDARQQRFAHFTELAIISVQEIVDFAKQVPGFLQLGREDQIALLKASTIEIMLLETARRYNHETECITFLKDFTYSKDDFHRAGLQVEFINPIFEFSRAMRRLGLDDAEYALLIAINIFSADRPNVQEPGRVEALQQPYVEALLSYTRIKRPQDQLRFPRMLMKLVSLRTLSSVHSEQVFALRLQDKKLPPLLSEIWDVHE
# Method in brief: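 TR-FRET coactivator recruitment: 5 nM LXR beta-LBD with 100 nM Fl-D22 peptide and 10 nM Tb-anti-GST antibody (final) in Coregulator Buffer G, 60 min at 22° C, read hourly up to 4 hours. Duplicate three-fold titrations from 30 μM; EC50 by variable-slope nonlinear regression.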
# [2] = target: T2, LXR alpha (Homo sapiens, UniProt Q13133); assay: LXR alpha agonist assay (Lanthascreen TR-FRET); format: biochemical; conditions: LXR alpha-LBD 2.5 nM, read-out: LXR-α EC50
# T2 construct: 5 μL of 4×LXR alpha-LBD was added to each well (final concentration 2.5 nM); purchased Thermofisher PV4655
# T2 sequence (Q13133 209-447 limits assumed): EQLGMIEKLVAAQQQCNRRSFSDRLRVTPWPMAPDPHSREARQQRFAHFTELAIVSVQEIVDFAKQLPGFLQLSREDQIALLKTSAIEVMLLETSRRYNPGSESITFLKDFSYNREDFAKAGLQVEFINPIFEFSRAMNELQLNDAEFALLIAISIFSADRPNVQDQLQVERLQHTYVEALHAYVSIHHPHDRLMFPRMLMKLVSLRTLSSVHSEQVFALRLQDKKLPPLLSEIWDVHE
# Description: EC50 values of compounds against LXR alpha were determined at Integral BioSciences (India) using Lanthascreen TR-FRET (Thermofisher, Cat #PV4655). Assay was performed in a 20 μL final volume in a Black 384-well plate (Corning, Cat #4511). Dose response curve for the compounds were prepared in duplicates with starting concentration at 30 μM and a three-fold titration was performed. The reaction buffer consisted of TR-FRET Coregulator Buffer H. To the compound dilution, 5 μL of 4×LXR alpha-LBD was added to each well (final concentration 2.5 nM). An equal volume (5 μL) containing 4×Fl-D22/Tb-anti GST antibody (final concentration 250 nM/10 nM) was added to initiate the enzyme reaction and the reaction was incubated for 60 min at 22° C. after which the plates were read using BioTek Plate reader for TR-FRET every hour up to 4 hours.
# Analysis was done using the standard curve by non-linear regression, variable slope inhibitor curve fits (Graph-Pad Prism) and EC50's of compounds were determined wherever possible.
# [3] = test system: ApoE; assay: THP-1 Western blotting assay (ApoE); format: cell-based; conditions: 30 μM; for ApoE normalized with Vehicle treated (DMSO) Control: 18 hour, PMA-differentiated THP-1 cells, densitometry, control = 100; for Fold Difference: ApoE vs DMSO control, THP-1 cells
# Description: THP-1 cells (2×10^6 cells/well) were differentiated with PMA (10 ng/mL) for 24 following which the cells were treated with different concentrations (30 μM and 10 μM) of compound for 18 hour in cell culture conditions (5% CO2, 37° C.). The cells were lysed using 1×RIPA (Cat #9806; Cell Signaling Technologies) buffer with Protease inhibitor (1×) (Cat #P830, Sigma) and sonicated. Whole cell lysate was collected and protein estimation was done using Bradford Reagent. The samples were subjected to SDS PAGE Electrophoresis and the protein bands were transferred onto PVDF membrane using wet transfer. The membrane was further blocked with 5% non-fat dry milk and incubated with primary antibody (ApoE; 1:1000, Cat #D7I9N, ABCA1; 1:1000, Cat #96292S; Cell Signaling Technologies) and secondary antibody (Anti rabbit IgG 1:2000, Cat #7074S, Cell Signaling Technologies). The membrane was then developed using ECL reagent (Ref. 32106, Thermo Fisher Scientific) in a gel doc system. The expression of protein was quantified by densitometry analysis.
# [4] = test system: MDA-MB-231; assay: Cell viability assay (resazurin) in MDA-MB-231; format: cell-based; conditions: Homo sapiens, 96 hr exposure, read-out: MDA_MB-231 Cell IC50
# Description: (§1) HepG2 (ATCC® HB-8065™), hepatocellular carcinoma, A549 (ATCC® CCL-185™), lung epithelial carcinoma, MCF7 (ATCC® HTB-22™), mammary gland epithelial carcinoma, MDA-MB-231 (ATCC® HTB-26™), TNBC, MiaPaCa-2 (ATCC® CRL-1420™) & Panc-1 (ATCC® CRL-1469™), pancreatic epithelial carcinoma, HCT116 (ATCC® CCL-247™), colon epithelial carcinoma and U87MG (ATCC® HTB-14™), brain epithelial carcinoma cell lines respectively were seeded in the respective medium (DMEM, Cat #10569044 with 10% FBS, Cat #16000044; Gibco for HepG2, A549, MCF7, MDA-MB-231, MiaPaCa-2, Panc-1, HCT116 and MEM, Cat #11095080 with 10% FBS for U87MG). Cells were allowed to grow at 37° C. for 24 hr in 5% CO2 (culture conditions) in a Nuaire incubator (humidified). Serially diluted compounds (100 μl) were added to the culture plate 24 hr later and the cultures were further incubated in culture conditions for 96 hr. Experiment was terminated at the completion of 96 hr exposure to the drug by replacing the medium with 100 μl of 1 mM of resazurin (R7017; Sigma) prepared in culture medium and the plates were further incubated in culture conditions for 4 hr. Fluorescence was then measured using a multimodal plate reader (Biotek Synergy Neo) at an excitation wavelength of 535 nm and emission wavelength of 590 nm to obtain relative fluorescence units. Data analysis was done by subtracting the background fluorescence (only medium blank) value from each reading and then normalizing with the vehicle control (DMSO treated cells) to obtain percent survival/proliferation. Percent survival at different doses was used to calculate IC50 by fitting the curve to the “four-parameter variable slope logistic model” using Prism Graph Pad.
# [5] = test system: A549; assay: Cell viability assay (resazurin) in A549; format: cell-based; conditions: Homo sapiens, 96 hr exposure
# Description: as §1
# [6] = test system: HepG2; assay: Cell viability assay (resazurin) in HepG2; format: cell-based; conditions: Homo sapiens, 96 hr exposure
# Description: as §1
# [7] = test system: HCT116; assay: Cell viability assay (resazurin) in HCT116; format: cell-based; conditions: Homo sapiens, HCT-116; 96 hr exposure
# Description: as §1
# [8] = test system: THP1; assay: Cell viability assay in THP1; format: cell-based; conditions: Homo sapiens, THP-1
# [9] = test system: U87MG; assay: Cell viability assay (resazurin) in U87MG; format: cell-based; conditions: Homo sapiens, U-87 MG; 96 hr exposure
# Description: (§2) HepG2 (ATCC® HB-8065™), hepatocellular carcinoma, A549 (ATCC® CCL-185™), lung epithelial carcinoma, MCF7 (ATCC® HTB-22™), mammary gland epithelial carcinoma, MDA-MB-231 (ATCC® HTB-26™), TNBC, MiaPaCa-2 (ATCC® CRL-1420™) & Panc-1 (ATCC® CRL-1469™), pancreatic epithelial carcinoma, HCT116 (ATCC® CCL-247™), colon epithelial carcinoma and U87MG (ATCC® HTB-14™), brain epithelial carcinoma cell lines respectively were seeded in the respective medium (DMEM, Cat #10569044 with 10% FBS, Cat #16000044; Gibco for HepG2, A549, MCF7, MDA-MB-231, MiaPaCa-2, Panc-1, HCT116 and MEM, Cat #11095080 with 10% FBS for U87MG). Cells were allowed to grow at 37° C. for 24 hr in 5% CO2 (culture conditions) in a Nuaire incubator (humidified). Serially diluted compounds (100 μl) were added to the culture plate 24 hr later and the cultures were further incubated in culture conditions for 96 hr. […] Fluorescence was then measured using a multimodal plate reader (Biotek Synergy Neo) at an excitation wavelength of 535 nm and emission wavelength of 590 nm to obtain relative fluorescence units. Data analysis was done by subtracting the background fluorescence (only medium blank) value from each reading and then normalizing with the vehicle control (DMSO treated cells) to obtain percent survival/proliferation. […]
# [10] = test system: MCF7; assay: Cell viability assay (resazurin) in MCF7; format: cell-based; conditions: Homo sapiens, 96 hr exposure
# Description: as §1
# [11] = test system: MiaPaCa-2; assay: Cell viability assay (resazurin) in MiaPaCa-2; format: cell-based; conditions: Homo sapiens, MIA PaCa-2; 96 hr exposure
# Description: as §2
# [12] = test system: mouse splenocytes; assay: Mouse splenocytes cytotoxicity assay (CTG); format: cell-based; conditions: Splenocyte, CD3e/CD28 activated Balb/c splenocytes, 72 hr
# Description: IC50 values to look at cytotoxicity of compounds on CD3e/CD28 induced splenocytes, was determined in mouse splenocytes isolated from Balb/c mice. Mouse splenocytes (2.5×10^5 cells/well/160 μl) were activated with Anti-mouse CD3e (0.5 μg/mL, coated overnight at 4° C.; Cat #14-0032-82, eBiosciences) and then incubated with serial dilutions of compounds (3 fold, 8 point dose response starting at 30 μM) and treated with Anti-mouse CD28 (1 μg/mL soluble; Cat #16-0289-81, eBiosciences). Splenocytes were further incubated under cell culture conditions for 72 hr after which assay was terminated by addition of CTG. Plate was incubated for 15 min at 37° C., 5% CO2 and luminescence was measured.
# [13] = test system: mouse splenocytes; assay: Mouse splenocyte assay, cytokine release (mIFN-γ ELISA); format: cell-based; conditions: Balb/c splenocytes, CD3e/CD28 and PMA+Ionomycin induced, read-out: Enhancement of mIFN-γ release by activated Mouse Splenocyte, EC50
# Description: EC50 values of compounds for enhancement of CD3e/CD28 induced mIFNγ release in mouse splenocytes isolated from Balb/c mice and differentiated (Treg) with PMA+Ionomycin. Mouse splenocytes (2*10^5 cells/well) were activated with Anti-mouse CD3e (0.5 μg/mL, coated overnight at 4° C.; Cat #14-0032-82, eBioscience) and then incubated with Anti-mouse CD28 (1 μg/mL soluble; Cat #16-0289-81, eBiosciences). After 48 hr of incubation serial dilutions of compounds (3 fold, 8 point dose response starting at 1 μM) were left for 6-8 hrs at cell culture conditions and then splenocytes were further incubated with PMA (50 ng/mL final concentration) and 1 μg/mL of Ionomycin (final concentration) and incubated under cell culture conditions overnight after which the supernatant was harvested, diluted to 1:50 and ELISA was performed as per the manufacturer's protocol (mIFN-γ kit; Cat #555138 & 550534, BD Biosciences). Plates were read in Biotek plate reader by measuring absorbance at 450 nm.
SMILES,EC50 [1],EC50 [2],ApoE normalized with Vehicle treated (DMSO) Control [3],Fold Difference [3],IC50 [4],IC50 [5],IC50 [6],IC50 [7],IC50 [8],IC50 [9],IC50 [10],IC50 [11],IC50 [12],EC50 [13]
"CN(C)C(=O)c1ccc(NC2CN(C3CCN(C(=O)[C@@](O)(c4ccccc4)C(F)(F)F)CC3)C2)cc1Cl (single isomer, unassigned) [Compound 1.10]",0.141 µM,26.1 µM,221.8,2.22,> 30 µM,> 30 µM,> 29.6 µM,–,–,–,–,–,–,–
"CC(C)[C@@](O)(C(=O)N1CCC(N2CC(Nc3ccc(C(=O)N(C)C)c(Cl)c3)C2)CC1)C(F)(F)F (single isomer, unassigned) [Compound 1.44]",10.9 µM,> 30 µM,156.5,1.57,> 30 µM,> 30 µM,–,> 30 µM,> 30 µM,–,–,–,–,–
"CC(C)[C@](O)(C(=O)N1CCC(N2CC(Nc3ccc(C(=O)N(C)C)c(Cl)c3)C2)CC1)C(F)(F)F (single isomer, unassigned) [Compound 1.45]",1.21 µM,> 30 µM,132.1,1.32,> 30 µM,> 30 µM,–,> 30 µM,> 30 µM,–,–,–,–,–
"CN(C)C(=O)c1ccc(NC2CN(C3CCN(C(=O)C(O)(c4ccccc4)C(F)(F)F)CC3)C2)cc1Cl (stereo not drawn) [Compound 1.3, 2-chloro-N,N-dimethyl-4-(1-(1-(3,3,3-trifluoro-2-hydroxy-2-phenylpropanoyl)piperidin-4-yl)azetidin-3-ylamino)benzamide]",1.12 µM,–,–,–,> 30 µM,> 30 µM,13.8 µM,–,–,> 30 µM,> 25.7 µM,> 30 µM,–,–
"O=c1[nH]ccc2cc(N3CCC(C4CCN(S(=O)(=O)c5ccccc5C(F)(F)F)CC4)CC3)cc(Cl)c12 [Compound 1.14, 8-chloro-6-(1′-(2-(trifluoromethyl)phenylsulfonyl)-4,4′-bipiperidin-1-yl)isoquinolin-1(2H)-one]",2.51 µM,–,–,–,–,–,–,–,–,–,–,–,22.9 µM,0.05 µM
